{
  "source": "patent US9969723B2",
  "about": "“3-(4-(benzyloxy)phenyl)hex-4-ynoic acid derivative, method of preparing same and pharmaceutical composition for preventing and treating metabolic disease including same as effective ingredient” (HYUNDAI PHARM CO., LTD, priority 2014, dated 2018)",
  "key": {"CYP2C19": {"target": "CYP2C19 (Homo sapiens (Human), UniProt P33261)", "sequence (P33261 whole entry)": "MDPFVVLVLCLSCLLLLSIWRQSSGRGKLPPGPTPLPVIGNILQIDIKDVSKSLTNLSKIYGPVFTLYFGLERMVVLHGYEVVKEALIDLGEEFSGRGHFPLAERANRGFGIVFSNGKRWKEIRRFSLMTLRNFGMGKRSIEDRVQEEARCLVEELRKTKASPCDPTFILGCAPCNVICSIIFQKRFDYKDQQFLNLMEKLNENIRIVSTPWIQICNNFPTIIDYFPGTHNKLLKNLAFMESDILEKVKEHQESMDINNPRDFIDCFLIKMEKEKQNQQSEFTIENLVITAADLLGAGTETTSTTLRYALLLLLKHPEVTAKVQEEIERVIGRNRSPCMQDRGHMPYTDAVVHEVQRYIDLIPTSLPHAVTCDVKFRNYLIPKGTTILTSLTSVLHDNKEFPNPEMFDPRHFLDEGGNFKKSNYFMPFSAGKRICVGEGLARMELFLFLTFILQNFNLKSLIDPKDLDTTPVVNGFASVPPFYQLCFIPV", "experiment": "CYP inhibition (BD GENTEST kit)", "type": "in vitro ADME", "settings": "CYP2C19 enzyme of the BD GENTEST CYP2C19 inhibition kit, pH 7.4, read-out: CYP inhibition (%) 2C19", "procedure": "(§1) CYP is the enzyme involved in drug metabolism. So, the inhibition of this enzyme can change the prediction of dose of a drug and toxicity caused by the co-treatment with other drugs. Therefore, the inventors measured the inhibitory effect of the compounds of Examples of the invention on endogenous CYP3A4, CYP2C9, CYP1A2, CYP2D6, and CYP2C19. […] To prepare the Invitrogen kit, the test sample was diluted in distilled water at 2.5× of the final experimental concentration.\n(§2) The test sample for BD GENTEST kit was diluted in acetonitrile at 50× of the final experimental concentration. NADPH-coenzyme mixture was prepared by diluting the coenzyme, G6PDH, and regulatory protein included in the kit with distilled water at the concentration instructed by the kit. The prepared 50× sample (4 μL) and the NADPH-coenzyme mixture (96 μL) were mixed in each well of U-bottom 96-well plate, followed by pre-culture for 10 minutes in a 37° C. incubator. Enzyme/substrate mixed solution was prepared by diluting the buffer (0.5 M potassium phosphate, pH 7.4), each CYP450 enzyme/substrate mixed solution included in the kit with distilled water at the instructed concentration. Upon completion of the pre-culture, 100 μL of the enzyme/substrate mixed solution was added in each well of the plate, followed by culture in a 37° C. incubator for 15 minutes (CYP 1A2), 30 minutes (CYP 3A4 and CYP 2C19) or 1 and half hours (CYP 2C9). […] The values obtained above were converted into % as the inhibition rate of the sample by the value of the non-treated group."}, "CYP2C9": {"target": "CYP2C9 (Homo sapiens (Human), UniProt P11712)", "sequence (P11712 whole entry)": "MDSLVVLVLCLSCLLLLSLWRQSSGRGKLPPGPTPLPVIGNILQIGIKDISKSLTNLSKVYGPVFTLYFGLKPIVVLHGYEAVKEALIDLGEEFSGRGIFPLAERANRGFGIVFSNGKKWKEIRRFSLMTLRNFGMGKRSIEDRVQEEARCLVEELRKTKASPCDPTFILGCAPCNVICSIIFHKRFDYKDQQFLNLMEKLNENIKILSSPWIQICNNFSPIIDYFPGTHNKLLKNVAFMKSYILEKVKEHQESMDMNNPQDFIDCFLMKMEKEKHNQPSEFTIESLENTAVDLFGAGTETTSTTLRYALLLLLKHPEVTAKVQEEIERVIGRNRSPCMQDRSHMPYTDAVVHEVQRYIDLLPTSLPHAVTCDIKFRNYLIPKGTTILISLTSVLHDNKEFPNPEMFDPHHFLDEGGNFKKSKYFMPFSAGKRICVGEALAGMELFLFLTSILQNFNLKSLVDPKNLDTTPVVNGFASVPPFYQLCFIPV", "experiment": "CYP inhibition (BD GENTEST kit)", "type": "in vitro ADME", "settings": "CYP2C9 enzyme of the BD GENTEST CYP2C9 inhibition kit, pH 7.4, read-out: CYP inhibition (%) 2C9", "procedure": "as §1, §2"}, "[1]": {"tested_on": "Male Goto-Kakizaki (GK) rats, the type II diabetes animal model (not obesity)", "experiment": "Oral glucose tolerance test (OGTT) 2", "type": "in vivo, rat", "procedure": "(§3) Male Goto-Kakizaki (GK) rats at 22˜23 weeks, the type II diabetes animal model (not obesity), were adapted at least for 7 days. Only healthy animals were selected thereafter, followed by OGTT. After fasting for 16˜18 hours, 5 rats per group were randomly selected and orally administered with the compounds prepared in Examples 5, 9, 14, 28, 37, and 47 at the dose of 0.3˜10 mg/kg. At this time, 5% polyethyleneglycol (PEG) was orally administered at the same dose to the non-treated group rats. 60 minutes after the sample administration, glucose (4 g/kg) was orally administered thereto at the dose of 5 ml/kg. Then, blood glucose was measured by using Accu-chek active strip (Roche diagnostic Co.). The time for the measurement was set at 60 minutes before the glucose administration (−60), 0 minute, 20 minutes, 40 minutes, 60 minutes, and 120 minutes after the glucose administration, and blood glucose was measured through tail vein puncture."}, "GPR40": {"target": "GPR40 (Homo sapiens (Human), UniProt O14842)", "sequence (O14842 whole entry)": "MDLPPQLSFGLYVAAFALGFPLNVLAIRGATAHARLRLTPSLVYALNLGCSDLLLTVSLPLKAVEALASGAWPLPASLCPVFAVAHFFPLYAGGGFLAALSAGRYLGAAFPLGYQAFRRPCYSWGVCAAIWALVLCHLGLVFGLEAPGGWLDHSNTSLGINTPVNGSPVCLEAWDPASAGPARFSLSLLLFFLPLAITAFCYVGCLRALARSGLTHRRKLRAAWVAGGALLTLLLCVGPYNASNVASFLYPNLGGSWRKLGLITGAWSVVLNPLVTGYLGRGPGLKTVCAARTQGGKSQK", "experiment": "Calcium flux GPCR agonist assay (Millipore GPCR profiler, FLIPR TETRA)", "description": "The compounds of Examples of the invention dissolved in DMSO (dimethyl sulfoxide), PBS (phosphate buffered saline), and DW (distilled water), etc, were diluted three-times with EMD Millipore's GPCR profiler assay buffer. […] Each well was filled with EMD Millipore's GPCR profiler assay buffer. The said EMD Millipore's GPCR profiler assay buffer was HBSS (Hanks Balanced Salt Solution) containing 20 mM HEPES (4-(2-hydroxyethyl)-1-piperazineethanesulfonic acid) and 2.5 mM Probenecid (4-(dipropylsulfamoyl)benzoic acid), whose pH was regulated as 7.4.\nThe compounds of Examples were duplicated at each concentration. […] Agonist assay was performed by using FLIPR^TETRA. Fluorescence and luminescence baseline were measured. […] To measure the activity of those compounds of Examples, GPCR activity assay was performed for 180 seconds.\nWhen the assay data were not satisfactory, an additional experiment was performed.\nAll the concentration dependent graphs were made by using GraphPad Prism. The graph was modified by Sigmoidal dose response."}, "CYP2D6": {"target": "CYP2D6 (Homo sapiens (Human), UniProt P10635)", "sequence (P10635 whole entry)": "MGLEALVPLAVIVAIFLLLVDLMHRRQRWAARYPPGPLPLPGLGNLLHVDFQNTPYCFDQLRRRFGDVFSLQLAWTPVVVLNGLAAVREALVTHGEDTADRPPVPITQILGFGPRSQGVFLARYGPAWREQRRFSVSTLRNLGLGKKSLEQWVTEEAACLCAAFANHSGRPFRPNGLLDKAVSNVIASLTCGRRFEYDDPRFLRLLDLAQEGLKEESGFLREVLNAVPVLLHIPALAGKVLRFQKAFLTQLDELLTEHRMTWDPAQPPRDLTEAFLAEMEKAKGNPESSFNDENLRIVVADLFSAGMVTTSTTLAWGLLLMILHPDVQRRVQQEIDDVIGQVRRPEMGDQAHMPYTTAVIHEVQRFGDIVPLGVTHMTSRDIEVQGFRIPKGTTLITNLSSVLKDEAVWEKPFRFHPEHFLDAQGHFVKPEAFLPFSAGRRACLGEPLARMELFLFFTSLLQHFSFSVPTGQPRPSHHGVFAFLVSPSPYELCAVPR", "experiment": "CYP inhibition (Invitrogen Vivid kit)", "type": "in vitro ADME", "settings": "CYP2D6 P450 BACULOSOMES reagent (Invitrogen kit P2862), probe Vivid CYP450 substrate, read-out: CYP inhibition (%) 2D6", "text": "(§4) CYP is the enzyme involved in drug metabolism. So, the inhibition of this enzyme can change the prediction of dose of a drug and toxicity caused by the co-treatment with other drugs. Therefore, the inventors measured the inhibitory effect of the compounds of Examples of the invention on endogenous CYP3A4, CYP2C9, CYP1A2, CYP2D6, and CYP2C19. At this time, Invitrogen (P2862) was used as the CYP2D6 inhibition kit, and BD GENTEST (459100, 459300, 459400, 459500) was used as the CYP1A2, CYP2C9, CYP2C19, and CYP3A4 inhibition kit. To prepare the Invitrogen kit, the test sample was diluted in distilled water at 2.5× of the final experimental concentration.\nP450 BACULOSOMES® reagent and reproducer (100×) included in Invitrogen kit were diluted in Vivid® CYP450 reaction buffer (2×) at the concentration that matched the target CYP450. The prepared 2.5× sample (80 μL) and the diluted P450 BACULOSOMES® reagent mixture (100 μL) were mixed in each well of U-bottom 96-well plate, followed by pre-culture for 20 minutes. Vivid® CYP450 substrate and NADP+ (100×) were diluted in Vivid® CYP450 reaction buffer (2×) at the concentration that matched the target CYP450 and the substrate. Upon completion of the pre-culture, substrate-NADP (nicotinamide adenine dinucleotide phosphate) mixed solution (20 μL) was added thereto, followed by reaction for 1 hour. Upon completion of the reaction, the reactant was transferred onto the white plate, and then fluorescence was measured with a microplate reader (CYP 2D6 excitation wavelength: 400 nm, absorption wavelength: 502 nm). […]"}, "[2]": {"tested_on": "Male OLETF (Otsuka Long-Evans Tokushima fatty) rats, the type II diabetes animal model (obesity)", "experiment": "Oral glucose tolerance test (OGTT) 3", "type": "in vivo, rat", "procedure": "as §3, with “OLETF (Otsuka Long-Evans Tokushima fatty)” for “Goto-Kakizaki (GK)”, “29˜30” for “22˜23”, “(obesity),” for “(not obesity),”, “1˜10” for “0.3˜10”"}, "CYP3A4": {"target": "CYP3A4 (Homo sapiens (Human), UniProt P08684)", "sequence (P08684 whole entry)": "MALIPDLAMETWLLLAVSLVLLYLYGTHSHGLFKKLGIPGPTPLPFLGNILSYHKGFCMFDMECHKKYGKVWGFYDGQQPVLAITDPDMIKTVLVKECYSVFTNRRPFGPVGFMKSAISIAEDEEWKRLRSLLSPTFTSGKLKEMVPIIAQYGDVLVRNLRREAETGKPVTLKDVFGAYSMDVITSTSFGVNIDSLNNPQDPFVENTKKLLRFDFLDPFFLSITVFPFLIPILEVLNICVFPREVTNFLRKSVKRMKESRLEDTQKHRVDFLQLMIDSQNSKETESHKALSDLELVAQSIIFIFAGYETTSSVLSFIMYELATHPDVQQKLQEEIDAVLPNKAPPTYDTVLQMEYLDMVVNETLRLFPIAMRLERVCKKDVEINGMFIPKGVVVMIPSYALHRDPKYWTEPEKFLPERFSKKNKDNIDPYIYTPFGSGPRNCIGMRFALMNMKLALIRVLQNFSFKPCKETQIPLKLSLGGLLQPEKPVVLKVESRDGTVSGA", "experiment": "CYP inhibition (BD GENTEST kit)", "type": "in vitro ADME", "settings": "CYP3A4 enzyme of the BD GENTEST CYP3A4 inhibition kit, pH 7.4, read-out: CYP inhibition (%) 3A4", "text": "as §4\nThe test sample for BD GENTEST kit was diluted in acetonitrile at 50× of the final experimental concentration. NADPH-coenzyme mixture was prepared by diluting the coenzyme, G6PDH, and regulatory protein included in the kit with distilled water at the concentration instructed by the kit. The prepared 50× sample (4 μL) and the NADPH-coenzyme mixture (96 μL) were mixed in each well of U-bottom 96-well plate, followed by pre-culture for 10 minutes in a 37° C. incubator. Enzyme/substrate mixed solution was prepared by diluting the buffer (0.5 M potassium phosphate, pH 7.4), each CYP450 enzyme/substrate mixed solution included in the kit with distilled water at the instructed concentration. Upon completion of the pre-culture, 100 μL of the enzyme/substrate mixed solution was added in each well of the plate, followed by culture in a 37° C. incubator for 15 minutes (CYP 1A2), 30 minutes (CYP 3A4 and CYP 2C19) or 1 and half hours (CYP 2C9). Upon completion of the reaction, the reactant was transferred onto the white plate, and then fluorescence was measured with a microplate reader (CYP 1A2 and CYP 2C19 excitation wavelength: 410 nm, absorption wavelength: 460 nm; CYP 2C9 and CYP 3A4 excitation wavelength: 409 nm, absorption wavelength: 530 nm). The values obtained above were converted into % as the inhibition rate of the sample by the value of the non-treated group."}, "[3]": {"settings": "oral dose 10 mg/kg, values in text"}},
  "data": [
    {"smiles": "CC#C[C@@H](CC(=O)O)c1ccc(OCc2cccc(C3=CCC4(CC3)OCCO4)c2)cc1", "note": "[Example 9, L-lysine (3S)-3-(4-(3-(1,4-dioxaspiro[4,5]dec-7-en-8-yl)benzyloxy)phenyl)hex-4-ynoate]", "values": [
      {"measurement": "inhibition at 30 min, 10 µM", "setting": "CYP2C19", "result": 3.7, "unit": "%"},
      {"measurement": "inhibition at 1.5 h, 10 µM", "setting": "CYP2C9", "result": 47.1, "unit": "%"},
      {"measurement": "% AUC", "setting": "[1]; oral dose 0.3 mg/kg", "result": "C (under 25.0%)"},
      {"measurement": "% AUC", "setting": "[1]; oral dose 1 mg/kg", "result": "C (under 25.0%)"},
      {"measurement": "% AUC", "setting": "[1]; oral dose 3 mg/kg", "result": "A (over 35.0%)"},
      {"measurement": "% AUC", "setting": "[1]; oral dose 10 mg/kg", "result": "A (over 35.0%)"},
      {"measurement": "hypoglycemic effect by that of the non-treated group", "setting": "[1]; [3]", "result": "more than 35.0%"},
      {"measurement": "EC50", "setting": "GPR40", "result": "< 1", "unit": "nM"},
      {"measurement": "inhibition at 1 h, 10 µM", "setting": "CYP2D6", "result": 13.9, "unit": "%"},
      {"measurement": "% AUC", "setting": "[2]; oral dose 1 mg/kg", "result": "B (25.0-35.0%)"},
      {"measurement": "% AUC", "setting": "[2]; oral dose 3 mg/kg", "result": "A (over 35.0%)"},
      {"measurement": "% AUC", "setting": "[2]; oral dose 10 mg/kg", "result": "A (over 35.0%)"},
      {"measurement": "hypoglycemic effect compared with the non-treated group", "setting": "[2]; [3]", "result": "more than 35.0%"},
      {"measurement": "inhibition at 30 min, 10 µM", "setting": "CYP3A4", "result": 15.5, "unit": "%"}
    ]}
  ]
}
